Experimental data reported in US10093630B2, “Pyrazole compounds and methods of making and using same” (ABIDE THERAPEUTICS, INC., priority 2014, dated 2018).
Where two headings read alike, the source gives them in different places.

Tests used:
Experiment in all cases: In vitro competitive activity-based protein profiling (gel-based, FP-Rh or HT-01 probe)
Format in all cases: biochemical
[1] = target: T1, FAAH (Mus musculus, UniProt O08914); settings: for inhibition at 1 µM: 1 μM inhibitor, read-out: % Inhibition at 1 μM, B = FAAH; for inhibition at 10 µM: 10 μM inhibitor, read-out: % Inhibition at 10 μM, B = FAAH
T1 construct: Proteomes (mouse brain membrane fraction or cell lysates); from tissue; host or cells: mouse brain membrane fraction (or cell lysates, not specified)
T1 sequence (O08914 1-579): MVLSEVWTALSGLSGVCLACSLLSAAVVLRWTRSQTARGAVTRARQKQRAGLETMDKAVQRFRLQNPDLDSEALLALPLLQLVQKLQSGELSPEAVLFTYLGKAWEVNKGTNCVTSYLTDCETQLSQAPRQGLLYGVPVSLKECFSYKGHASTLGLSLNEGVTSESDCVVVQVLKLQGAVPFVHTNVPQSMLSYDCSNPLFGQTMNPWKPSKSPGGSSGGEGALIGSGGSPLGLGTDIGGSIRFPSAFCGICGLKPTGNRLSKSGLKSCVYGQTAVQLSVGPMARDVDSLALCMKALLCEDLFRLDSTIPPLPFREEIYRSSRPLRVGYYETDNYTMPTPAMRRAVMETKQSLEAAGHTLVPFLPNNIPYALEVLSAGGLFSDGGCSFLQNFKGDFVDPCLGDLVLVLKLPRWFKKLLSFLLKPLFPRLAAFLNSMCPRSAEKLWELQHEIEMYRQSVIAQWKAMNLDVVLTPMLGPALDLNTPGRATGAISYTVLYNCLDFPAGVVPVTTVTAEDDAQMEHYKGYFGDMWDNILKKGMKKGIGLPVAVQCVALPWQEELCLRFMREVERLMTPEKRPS
Method in brief: (§1)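 Mouse brain membrane or cell lysate proteomes (1.0 mg/mL) preincubated with inhibitors 30 min at 37° C, then labelled with FP-Rh or HT-01 for 30 min at 37° C. After SDS-PAGE, activity quantified from fluorescent band intensity.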

[2] = target: T2, ABHD6 (Mus musculus, UniProt Q8R2Y0); settings: for inhibition at 1 µM: 1 μM inhibitor, read-out: % Inhibition at 1 μM, C = ABHD6; for inhibition at 10 µM: 10 μM inhibitor, read-out: % Inhibition at 10 μM, C = ABHD6
T2 construct: Proteomes (mouse brain membrane fraction or cell lysates); from tissue; host or cells: mouse brain membrane fraction (or cell lysates, not specified)
T2 sequence (Q8R2Y0 1-336): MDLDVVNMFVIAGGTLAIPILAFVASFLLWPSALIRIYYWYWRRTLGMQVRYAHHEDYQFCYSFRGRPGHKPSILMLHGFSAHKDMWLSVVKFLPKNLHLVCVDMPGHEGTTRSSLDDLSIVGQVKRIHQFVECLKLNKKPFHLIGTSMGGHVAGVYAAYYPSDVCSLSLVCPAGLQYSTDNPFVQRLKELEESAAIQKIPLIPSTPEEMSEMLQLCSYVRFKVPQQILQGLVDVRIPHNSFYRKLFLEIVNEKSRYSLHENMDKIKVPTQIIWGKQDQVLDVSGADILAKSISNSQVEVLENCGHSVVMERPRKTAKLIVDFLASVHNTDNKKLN
Method in brief: as §1

[3] = target: T3, MAGL (Mus musculus, UniProt O35678); settings: for inhibition at 1 µM: 1 μM inhibitor; for inhibition at 10 µM: 10 μM inhibitor
T3 construct: Proteomes (mouse brain membrane fraction or cell lysates); from tissue; host or cells: mouse brain membrane fraction (or cell lysates, not specified)
T3 sequence (O35678 1-303): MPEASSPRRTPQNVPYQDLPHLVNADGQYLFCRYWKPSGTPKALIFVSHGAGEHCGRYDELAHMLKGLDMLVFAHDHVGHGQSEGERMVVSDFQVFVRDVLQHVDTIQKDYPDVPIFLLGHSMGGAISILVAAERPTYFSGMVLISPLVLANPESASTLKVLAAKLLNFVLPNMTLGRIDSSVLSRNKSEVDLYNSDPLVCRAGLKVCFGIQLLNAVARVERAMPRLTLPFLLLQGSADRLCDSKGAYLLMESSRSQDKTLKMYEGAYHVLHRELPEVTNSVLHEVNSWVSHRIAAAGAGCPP
Method in brief: as §1

[4] = target: T4, PLA2G7 (Mus musculus, UniProt Q60963); settings: for inhibition at 1 µM: 1 μM inhibitor, read-out: % Inhibition at 1 μM, D = PLA2G7; for inhibition at 10 µM: 10 μM inhibitor, read-out: % Inhibition at 10 μM, D = PLA2G7
T4 construct: Proteomes (mouse brain membrane fraction or cell lysates); from tissue; host or cells: mouse brain membrane fraction (or cell lysates, not specified)
T4 sequence (Q60963 22-440): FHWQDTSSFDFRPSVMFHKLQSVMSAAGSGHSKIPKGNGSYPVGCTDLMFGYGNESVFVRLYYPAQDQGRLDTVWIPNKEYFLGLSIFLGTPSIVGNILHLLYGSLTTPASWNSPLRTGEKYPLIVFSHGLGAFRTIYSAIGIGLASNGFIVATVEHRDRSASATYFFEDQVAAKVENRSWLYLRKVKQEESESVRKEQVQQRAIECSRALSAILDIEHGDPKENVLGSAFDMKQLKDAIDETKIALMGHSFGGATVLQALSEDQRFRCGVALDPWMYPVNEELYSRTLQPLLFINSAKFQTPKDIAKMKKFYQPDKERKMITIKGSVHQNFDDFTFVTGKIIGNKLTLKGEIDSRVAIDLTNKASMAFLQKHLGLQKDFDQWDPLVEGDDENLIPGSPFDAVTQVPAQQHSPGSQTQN
Method in brief: as §1

Row | inhibition at 1 µM [1] [%] | inhibition at 10 µM [1] [%] | inhibition at 1 µM [2] [%] | inhibition at 10 µM [2] [%] | inhibition at 1 µM [3] [%] | inhibition at 10 µM [3] [%] | inhibition at 1 µM [4] [%] | inhibition at 10 µM [4] [%] | inhibition at 1 µM ([1]; gel-based competitive ABPP) [%] | inhibition at 1 µM ([2]; gel-based competitive ABPP) [%] | inhibition at 1 µM ([3]; gel-based competitive ABPP) [%] | inhibition at 1 µM ([4]; gel-based competitive ABPP) [%] | IC50 ([1]; mouse brain membrane fraction or cell lysates, 30 min preincubation at 37° C., read-out: Mouse (IC50 value, nM) FAAH) [nM] | IC50 ([2]; mouse brain membrane fraction or cell lysates, 30 min preincubation at 37° C., read-out: Mouse (IC50 value, nM) ABHD6) [nM] | IC50 ([3]; mouse brain membrane fraction or cell lysates, 30 min preincubation at 37° C., read-out: Mouse (IC50 value, nM) MAGL) [nM] | IC50 ([4]; mouse brain membrane fraction or cell lysates, 30 min preincubation at 37° C.) [nM] | Compound
1 | > 75 | > 75 | > 75 | > 75 | > 75 | > 75 | > 75 | > 75 |  |  |  |  |  |  |  |  | N#Cc1cnn(C(=O)N2CCN(Cc3ccc(Oc4ccccc4)cc3)CC2)c1 [Example 18, 1-(4-(4-Phenoxybenzyl)piperazine-1-carbonyl)-1H-pyrazole-4-carbonitrile]
2 | < 25 | > 75 | < 25 | > 75 | < 25 | < 25 | < 25 | 25 to 75 |  |  |  |  |  |  |  |  | CN(CCN(C)S(C)(=O)=O)C(=O)n1cc(C(F)(F)F)cn1 [Example 195, N-Methyl-N-(2-(N-methylmethylsulfonamido)ethyl)-4-(trifluoromethyl)-1H-pyrazole-1-carboxamide]
3 | > 75 | > 75 | > 75 | > 75 | > 75 | > 75 | > 75 | > 75 |  |  |  |  |  |  |  |  | O=C(N1CCN(c2ccccc2N2CCCC2)CC1)n1cc(C(F)(F)F)cn1 [Example 239, (4-(2-(Pyrrolidin-1-yl)phenyl)piperazin-1-yl)(4-(trifluoromethyl)-1H-pyrazol-1-yl)methanone]
4 |  | < 25 | < 25 | > 75 |  | 25 to 75 | 25 to 75 | > 75 |  |  |  |  |  |  |  |  | Cc1ccccc1-c1cnn(C(=O)N2CCN(C(c3ccc(Cl)cc3)c3ccc(Cl)cc3)CC2)c1 [Example 122, (4-(Bis(4-chlorophenyl)methyl)piperazin-1-yl)(4-(o-tolyl)-1H-pyrazol-1-yl)methanone]
5 | > 75 | > 75 | > 75 | > 75 | > 75 | > 75 | > 75 | > 75 |  |  |  |  |  |  |  |  | O=C(N1CCN(c2ccc(N3CCOCC3)cc2)CC1)n1cc(C(F)(F)F)cn1 [Example 238, (4-(4-Morpholinophenyl)piperazin-1-yl)(4-(trifluoromethyl)-1H-pyrazol-1-yl)methanone]
6 |  | < 25 |  | < 25 |  | < 25 |  | < 25 |  |  |  |  |  |  |  |  | Cc1cnn(C(=O)N2CCCN(S(C)(=O)=O)CC2)c1 [Example 166, (4-Methyl-1H-pyrazol-1-yl)(4-(methylsulfonyl)-1,4-diazepan-1-yl)methanone]
7 |  |  |  |  |  |  |  |  | > 75 | > 75 | > 75 | < 25 |  |  |  |  | O=C(N1CCN(Cc2cccc(OCc3ccccc3)c2)CC1)n1cccn1 [Example 296, (4-(3-(Benzyloxy)benzyl)piperazin-1-yl)(1H-pyrazol-1-yl)methanone]
8 | > 75 | > 75 | > 75 | > 75 | > 75 | > 75 | > 75 | > 75 |  |  |  |  | < 100 | 100 to 1000 | > 1000 | < 100 | CN(Cc1cccc(-c2ccncc2)c1)C(=O)n1cc(-c2ccccc2)cn1 [Example 219, N-Methyl-4-phenyl-N-(3-(pyridin-4-yl)benzyl)-1H-pyrazole-1-carboxamide]
9 | < 25 | < 25 | < 25 | < 25 | < 25 | > 75 | < 25 | < 25 |  |  |  |  |  |  |  |  | O=C(Nc1ccc2ccccc2c1)n1cccn1 [Example 40, N-(Naphthalen-2-yl)-1H-pyrazole-1-carboxamide]
10 | < 25 | > 75 | > 75 | > 75 | > 75 | > 75 | < 25 | > 75 |  |  |  |  |  |  |  |  | O=C(N1CCN(Cc2ccc(Oc3ccccc3)cc2)CC1)n1cccn1 [Example 16, (4-(4-Phenoxybenzyl)piperazin-1-yl)(1H-pyrazol-1-yl)methanone]
11 | < 25 | > 75 | < 25 | < 25 | < 25 | 25 to 75 | < 25 | < 25 |  |  |  |  |  |  |  |  | N#Cc1cnn(C(=O)NCCCCCc2ccccc2)c1 [Example 39, 4-Cyano-N-(5-phenylpentyl)-1H-pyrazole-1-carboxamide]
12 | < 25 | > 75 | < 25 | > 75 | < 25 | < 25 | < 25 | > 75 |  |  |  |  |  |  |  |  | CC(=O)N1CCCN(C(=O)n2cc(C#N)cn2)CC1 [Example 177, 1-(4-Acetyl-1,4-diazepane-1-carbonyl)-1H-pyrazole-4-carbonitrile]
13 | < 25 | 25 to 75 | < 25 | > 75 | < 25 | < 25 | < 25 | > 75 |  |  |  |  |  |  |  |  | CC(=O)N(C)CCN(C)C(=O)n1cc(C(F)(F)F)cn1 [Example 159, N-Methyl-N-(2-(N-methylacetamido)ethyl)-4-(trifluoromethyl)-1H-pyrazole-1-carboxamide]
14 | < 25 | < 25 | < 25 | < 25 | < 25 | < 25 | < 25 | > 75 |  |  |  |  |  |  |  |  | CC(=O)N1CCN(C(=O)n2cc(C)cn2)CC1 [Example 161, 1-(4-(4-Methyl-1H-pyrazole-1-carbonyl)piperazin-1-yl)ethanone]
15 |  | 25 to 75 |  | < 25 |  | < 25 |  | < 25 |  |  |  |  |  |  |  |  | CC(=O)N1CCCN(C(=O)n2cc(C)cn2)CC1 [Example 165, 1-(4-(4-Methyl-1H-pyrazole-1-carbonyl)-1,4-diazepan-1-yl)ethanone]
